Data taken from article PMC11872463, “Identification of a group of 9-amino-acridines that selectively downregulate regulatory T cell functions through FoxP3” (iScience, 2025).
Where a name gives a salt, the structure may show the parent alone. Read-outs that look alike come from different tables or passages of the source.

Tests used:
[1] = target: T1, FoxP3 (Homo sapiens, UniProt Q9BZS1); experiment: SPR, concentration-dependent binding to immobilized FoxP3 (KD not given in main text); IC50 is from AlphaScreen FoxP3-DNA competition; EMSA
T1 construct: His-FoxP3 full-length (SPR); His-FoxP3-ΔN (182-421aa) (AlphaScreen, EMSA)
T1 sequence (Q9BZS1 182-421): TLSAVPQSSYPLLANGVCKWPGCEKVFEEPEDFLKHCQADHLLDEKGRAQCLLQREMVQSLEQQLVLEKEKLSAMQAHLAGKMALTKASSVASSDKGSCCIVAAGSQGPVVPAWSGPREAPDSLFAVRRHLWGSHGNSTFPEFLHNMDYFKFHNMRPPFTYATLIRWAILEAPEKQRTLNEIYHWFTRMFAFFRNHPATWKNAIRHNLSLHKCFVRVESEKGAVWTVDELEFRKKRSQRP
Excerpt: SPR, concentration-dependent binding to immobilized FoxP3 (KD not printed in main text); IC50 is from AlphaScreen FoxP3-DNA competition; EMSA on FoxP3 | we confirmed the concentration-dependent binding of QDD and MP4 to immobilized FoxP3 protein (Figure S6B)

[2] = target: T1, FoxP3; experiment: biochemical; design: SPR on Biacore T200, His-FoxP3 immobilized on CM5 chip, affinity
Procedure: To explore how 9-amino acridines downregulate FoxP3, directly or indirectly, a low-molecular-weight compound screening (low molecular weight [LMW] screen) was performed using surface plasmon resonance (SPR) analysis to determine affinities between FoxP3 and all the compounds listed in Table 1. […] In contrast, we observed low or no affinity for FoxP3 with compounds that had little or no effects on FoxP3 downregulation (such as MP20 and MP25). Furthermore, we confirmed the concentration-dependent binding of QDD and MP4 to immobilized FoxP3 protein (Figure S6B) with dissociation constant (KD) values corresponding to the observed IC50 in the cell-based assay, implying that the function of 9-amino-acridine analogs on FoxP3 regulation might be due to their direct binding ability. SPR, concentration-dependent binding to immobilized FoxP3 (KD not printed in main text); IC50 is from AlphaScreen FoxP3-DNA competition; EMSA on FoxP3 | we confirmed the concentration-dependent binding of QDD and MP4 to immobilized FoxP3 protein (Figure S6B)

[3] = system: T2, FoxP3; experiment: cells; design: species or system primary human CD3+ T cells; flow cytometry of FoxP3+ % in CD4+ T cells, normalized to mock (FoxP3 down-regulation); settings: FoxP3 down-regulation in CD4+ T cells, 24 h
T2 construct: endogenous, primary CD4+ T cells
Procedure: To search for potential small molecular FoxP3 inhibitors, we screened the Prestwick library of approved drugs (1,522 compounds) for compounds that regulated the expression of FoxP3 using a novel high-throughput flow cytometry protocol. Primary CD3^+ T cells from healthy donors were treated with compounds from the Prestwick library at 10 μM for 16 h, followed by a high-throughput flow cytometry analysis measuring FoxP3% in CD4^+ T cells (for workflow, see Figure S1A). Compounds that reduced FoxP3 levels compared to DMSO were selected for further validation. The first verified hit was quinacrine dihydrochloride dihydrate (QDD), where we observed a concentration-dependent FoxP3 downregulation with an IC50 of less than 5 μM in all donors tested (Figures 1A and 1B; Table 1, group 0; Figure S2A). QDD was also confirmed to downregulate FoxP3 in Tregs by gating out CD127^+ cells in both non-stimulated and stimulated T cells (Figure S1B). […] In the first round, compounds MP2, MP3, MP4, and MP5 were identified to be working efficiently in downregulating FoxP3 levels (Table 1, group 2; Table S1; Figure S2C). […] Therefore, a small library of similar acridine and acridinone compounds (Table 1, group 3 and 4; Table S1; Figures S2D and S2E) was assembled by in-silico prediction and assessed for their effects on FoxP3 regulation. […]

IC50 ([1]; read-out: IC50) [µM]	SMILES	Kd [2] [µM]	IC50 [3] [µM]	IC50 [1] [µM]
0.37	CCN(CC)CCCC(C)Nc1c2cc(OC)ccc2nc2cc(Cl)c(N)cc12 (centres unmarked) [MP4, 3-chloro-N9-[5-(diethylamino)pentan-2-yl]-7-methoxyacridine-2,9-diamine]	6.9	–	–
–	COc1cc(NC(C)CCCN)c2ncccc2c1 (centres unmarked) [Primaquine]	–	> 100	–
–	CCN(CC)CCCC(C)Nc1c2ccc(Cl)cc2nc2ccc(OC)cc12 (centres unmarked) [QDD, 6-chloro-N-[5-(diethylamino)pentan-2-yl]-2-methoxyacridin-9-amine dihydrate dihydrochloride]	4.09	–	2
